Converted amounts (≈) assume the structure as drawn. Numbered stars: 1 amine (or outer) side, 2 acyl side, 3 side chain; on linkers, the order of the positions; unused ones are H or OH. Bridge positions count the residues as written; N and C are the ends. Square brackets hold non-standard residues; d marks the D form. Peptide text beside a SMILES is read from it. * marks the point of attachment. ξ: configuration not given here. Piperazine(2S-CO,4-Me) = CN1CCN[C@H](C(=O)O)C1; Phe(3,5-Me2) = Cc1cc(C)cc(C[C@H](N)C(=O)O)c1; Phe(3-Me) = Cc1cccc(C[C@H](N)C(=O)O)c1; NH(4-Cl-2-F-phenyl) = Fc1cc(Cl)ccc1N*; Pro(4R-Me) = C[C@H]1CN[C@H](C(=O)O)C1; Hyp = O=C(O)[C@@H]1C[C@@H](O)CN1; ξNMeThr = CNC(C(=O)O)[C@@H](C)O; aThr = C[C@H](O)[C@H](N)C(=O)O; Pip = O=C(O)[C@@H]1CCCCN1; CO = O=C([*:1])[*:2]; X2 = Fc1cc(N*)ccc1Cl
Legend:
Solubility determination = format: physicochemical; conditions: for solubility kinetic at 10 min: 22 °C, aqueous buffer, kinetic from dmso stock
In short: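 DMSO stock spiked into DPBS at 100 µM final, in triplicate, shaken 10 min, then centrifuged 20 min at 22 °C. Supernatant quantified by UPLC-UV and single-ion-recording MS against DMSO calibration standards (0.098–100 µM), using 1/x²-weighted linear regression.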

S. aureus ClpP (Sa-ClpP) = molecular target: T1, S. aureus ClpP (Sa-ClpP) (Staphylococcus aureus, UniProt Q2G036); assay: Casein-BODIPY digestion assay (ClpP activation); format: biochemical
T1 construct: made in house; host or cells: E. coli BL21 (DE3)

S. aureus ΔClpP = assay: Minimal inhibitory concentration, microbroth dilution; format: cell-based, Staphylococcus aureus; conditions: MIC; ClpP inactivated
In short: (§1)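 Compound was diluted twofold in the appropriate broth. Bacterial suspension (approx. 10^5 cfu/mL) was then added in equal volume, giving a maximum test concentration of 200 μM. After aerobic overnight incubation at 37 °C, wells were inspected visually for growth.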

S. pyogenes = assay: as above; format: cell-based; conditions: Streptococcus pyogenes; MIC; read-out: Minimal Inhibitory Concentrations (μM) S. pyogenes
In short: as §1

T1 sequence (Q2G036 whole entry): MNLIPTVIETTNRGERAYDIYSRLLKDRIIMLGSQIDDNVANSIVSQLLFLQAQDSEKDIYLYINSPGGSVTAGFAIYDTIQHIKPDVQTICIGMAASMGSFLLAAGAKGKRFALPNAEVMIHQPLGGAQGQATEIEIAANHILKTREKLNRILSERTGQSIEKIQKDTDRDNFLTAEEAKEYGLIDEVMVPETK

Row | Compound | μsol (μM) (Solubility determination) [µM] | μsol (μg/mL) (Solubility determination) [µg/mL] | solubility kinetic at 10 min (Solubility determination) [µM] | EC50 (S. aureus ClpP (Sa-ClpP)) [nM] | Minimal Inhibitory Concentrations (μM) S. aureus ΔClpP (S. aureus ΔClpP) [µM] | MIC (S. pyogenes) [µM]
1 | Cc1cccc(C[C@H](NC(=O)Nc2ccc(Cl)cc2F)C(=O)N[C@@H]2C(=O)N3CCC[C@H]3C(=O)N3CCCC[C@H]3C(=O)N[C@@H](C)C(=O)N3C[C@H](C)C[C@H]3C(=O)O[C@H]2C)c1 [Compound 3, (S)-2-(3-(4-CHLORO-2-FLUOROPHENYL)UREIDO)-3-(M-TOLYL)-N-((2R,6S,8AS,14AS,20S,21S,23AS)-2,6,21-TRIMETHYL-5,8,14,19,23-PENTAOXOOCTADECAHYDRO-1H,5H,14H,19H-PYRIDO[2,1-I]DIPYRROLO[2,1-C:2′,1′-L][1]OXA[4,7,10,13]TETRAAZACYCLOHEXADECIN-20-YL)PROPANAMIDE] ({NH(4-Cl-2-F-phenyl)-CO}-[Phe(3-Me)][aThr]P[Pip]A[Pro(4R-Me)]; ester 2-C) | 2.2 ± 0.1 | 1.8 ± 0.1 | 0.5 (≈ 0.412 µg/mL) | 390 ± 20 | 50 | 0.313 (≈ 0.258 µg/mL)
2 | Cc1cc(C)cc(C[C@H](NC(=O)Nc2ccc(Cl)cc2F)C(=O)N[C@@H]2C(=O)N3CCC[C@H]3C(=O)N3CCCC[C@H]3C(=O)N[C@@H](C)C(=O)N3C[C@H](C)C[C@H]3C(=O)O[C@H]2C)c1 [Compound 4, (S)-2-(3-(4-CHLORO-2-FLUOROPHENYL)UREIDO)-3-(3,5-DIMETHYLPHENYL)-N-((2R,6S,8AS,14AS,20S,21S,23AS)-2,6,21-TRIMETHYL-5,8,14,19,23-PENTAOXOOCTADECAHYDRO-1H,5H,14H,19H-PYRIDO[2,1-I]DIPYRROLO[2,1-C:2′,1′-L][1]OXA[4,7,10,13]TETRAAZACYCLOHEXADECIN-20-YL)PROPANAMIDE] ({NH(4-Cl-2-F-phenyl)-CO}-[Phe(3,5-Me2)][aThr]P[Pip]A[Pro(4R-Me)]; ester 2-C) | – | <0.1 | – | 430 ± 20 | 25 | 1.25 (≈ 1.05 µg/mL)
3 | Cc1cccc(C[C@H](NC(=O)Nc2ccc(Cl)cc2F)C(=O)N[C@@H]2C(=O)N3CCC[C@H]3C(=O)N(C)C([C@@H](C)O)C(=O)N[C@@H](C)C(=O)N3C[C@H](C)C[C@H]3C(=O)O[C@H]2C)c1 (stereo partly drawn) [Compound 5] ({NH(4-Cl-2-F-phenyl)-CO}-[Phe(3-Me)][aThr]P[ξNMeThr]A[Pro(4R-Me)]; ester 2-C) | 22.5 ± 1.9 | – | 17.4 ± 0.4 (≈ 14.4 µg/mL) | 320 ± 20 | >20 | 0.078 (≈ 0.0646 µg/mL)
4 | Cc1cccc(C[C@H](NC(=O)Nc2ccc(Cl)cc2F)C(=O)N[C@@H]2C(=O)N3C[C@H](O)C[C@H]3C(=O)N3CCCC[C@H]3C(=O)N[C@@H](C)C(=O)N3C[C@H](C)C[C@H]3C(=O)O[C@H]2C)c1 [Compound 6, (S)-2-(3-(4-CHLORO-2-FLUOROPHENYL)UREIDO)-N-((2R,6S,8AS,14AS,16R,20S,21S,23AS)-16-HYDROXY-2,6,21-TRIMETHYL-5,8,14,19,23-PENTAOXOOCTADECAHYDRO-1H,5H,14H,19H-PYRIDO[2,1-I]DIPYRROLO[2,1-C:2′,1′-L][1]OXA[4,7,10,13]TETRAAZACYCLOHEXADECIN-20-YL)-3-(M-TOLYL)PROPANAMIDE] ({NH(4-Cl-2-F-phenyl)-CO}-[Phe(3-Me)][aThr][Hyp][Pip]A[Pro(4R-Me)]; ester 2-C) | 13.9 ± 1.4 | – | 12.6 ± 0.3 (≈ 10.6 µg/mL) | 230 ± 20 | >20 | 0.156 (≈ 0.131 µg/mL)
5 | Cc1cccc(C[C@H](NC(=O)Nc2ccc(Cl)cc2F)C(=O)N[C@H]2COC(=O)[C@@H]3C[C@@H](C)CN3C(=O)[C@H](C)NC(=O)[C@@H]3CCCCN3C(=O)[C@@H]3CCCN3C2=O)c1 [Compound 8, (S)-2-(3-(4-CHLORO-2-FLUOROPHENYL)UREIDO)-N-((2R,6S,8AS,14AS,20S,23AS)-2,6-DIMETHYL-5,8,14,19,23-PENTAOXOOCTADECAHYDRO-1H,5H,14H,19H-PYRIDO[2,1-I]DIPYRROLO[2,1-C:2′,1′-L][1]OXA[4,7,10,13]TETRAAZACYCLOHEXADECIN-20-YL)-3-(M-TOLYL)PROPANAMIDE] | 8.8 ± 0.7 | – | 2.79 ± 0.5 (≈ 2.26 µg/mL) | 280 ± 20 | >20 | 0.156 (≈ 0.126 µg/mL)
6 | Cc1cccc(C[C@H](NC(=O)Nc2ccc(Cl)cc2F)C(=O)N[C@H]2COC(=O)[C@@H]3C[C@@H](C)CN3C(=O)[C@H](C)NC(=O)[C@@H]3CCCCN3C(=O)[C@@H]3C[C@@H](O)CN3C2=O)c1 [Compound 10] | 26.0 ± 0.9 | – | 27.04 ± 0.25 (≈ 22.3 µg/mL) | 380 ± 30 | >20 | 0.156 (≈ 0.129 µg/mL)
7 | Cc1cccc(C[C@H](NC(=O)Nc2ccc(Cl)cc2F)C(=O)N[C@@H]2C(=O)N3CCC[C@H]3C(=O)N3CCN(C)C[C@H]3C(=O)N[C@@H](C)C(=O)N3C[C@H](C)C[C@H]3C(=O)O[C@H]2C)c1 [Compound 11, (S)-2-(3-(4-CHLORO-2-FLUOROPHENYL)UREIDO)-N-((6AS,12S,13S,15AS,17R,21S,23AS)-2,13,17,21-TETRAMETHYL-6,11,15,20,23-PENTAOXOOCTADECAHYDRO-2H,6H,11H,15H-PYRAZINO[2,1-I]DIPYRROLO[2,1-C:2′,1′-L][1]OXA[4,7,10,13]TETRAAZACYCLOHEXADECIN-12-YL)-3-(M-TOLYL)PROPANAMIDE] ({NH(4-Cl-2-F-phenyl)-CO}-[Phe(3-Me)][aThr]P[Piperazine(2S-CO,4-Me)]A[Pro(4R-Me)]; ester 2-C) | 32.2 ± 1.4 | – | 43.2 ± 3.14 (≈ 36.3 µg/mL) | 290 ± 10 | >20 | 0.078 (≈ 0.0655 µg/mL)
8 | Cc1cccc(C[C@H](NC(=O)Nc2ccc(Cl)cc2F)C(=O)N[C@H]2COC(=O)[C@@H]3C[C@@H](C)CN3C(=O)[C@H](C)NC(=O)[C@@H]3CCCCN3C(=O)[C@@H]3C[C@H](N)CN3C2=O)c1 [Compound 12, (S)—N-((2R,6S,8AS,14AS,16S,20S,23AS)-16-AMINO-2,6-DIMETHYL-5,8,14,19,23-PENTAOXOOCTADECAHYDRO-1H,5H,14H,19H-PYRIDO[2,1-I]DIPYRROLO[2,1-C:2′,1′-L][1]OXA[4,7,10,13]TETRAAZACYCLOHEXADECIN-20-YL)-2-(3-(4-CHLORO-2-FLUOROPHENYL)UREIDO)-3-(M-TOLYL)PROPANAMIDE] | 24.7 ± 3.7 | – | 37.5 ± 13 (≈ 30.9 µg/mL) | 580 ± 20 | >20 | 0.313 (≈ 0.258 µg/mL)
9 | Cc1cccc(C[C@H](NC(=O)Nc2ccc(Cl)cc2F)C(=O)N[C@H]2COC(=O)[C@@H]3C[C@@H](C)CN3C(=O)[C@H](C)NC(=O)[C@@H]3CN(C)CCN3C(=O)[C@@H]3CCCN3C2=O)c1 [Compound 13, (S)-2-(3-(4-CHLORO-2-FLUOROPHENYL)UREIDO)-3-(M-TOLYL)-N-((6AS,12S,15AS,17R,21S,23AS)-2,17,21-TRIMETHYL-6,11,15,20,23-PENTAOXOOCTADECAHYDRO-2H,6H,11H,15H-PYRAZINO[2,1-I]DIPYRROLO[2,1-C:2′,1′-L][1]OXA[4,7,10,13]TETRAAZACYCLOHEXADECIN-12-YL)PROPANAMIDE] ({NH(4-Cl-2-F-phenyl)-CO}-[Phe(3-Me)]SP[Piperazine(2S-CO,4-Me)]A[Pro(4R-Me)]; ester 2-C) | 38.3 ± 2.2 | – | 40.1 ± 4.6 (≈ 33.1 µg/mL) | 1520 ± 100 | >20 | 0.313 (≈ 0.258 µg/mL)
10 | Cc1cccc(C[C@H](NC(=O)Nc2ccc(Cl)c(F)c2)C(=O)N[C@H]2COC(=O)[C@@H]3C[C@@H](C)CN3C(=O)[C@H](C)NC(=O)[C@@H]3CN(C)CCN3C(=O)[C@@H]3CCCN3C2=O)c1 [Compound 14, (S)-2-(3-(4-CHLORO-3-FLUOROPHENYL)UREIDO)-3-(M-TOLYL)-N-((6AS,12S,15AS,17R,21S,23AS)-2,17,21-TRIMETHYL-6,11,15,20,23-PENTAOXOOCTADECAHYDRO-2H,6H,11H,15H-PYRAZINO[2,1-I]DIPYRROLO[2,1-C:2′,1′-L][1]OXA[4,7,10,13]TETRAAZACYCLOHEXADECIN-12-YL)PROPANAMIDE] ({X2-CO}-[Phe(3-Me)]SP[Piperazine(2S-CO,4-Me)]A[Pro(4R-Me)]; ester 2-C) | 43.6 ± 1.8 | – | 39.3 ± 1.9 (≈ 32.4 µg/mL) | 1410 ± 200 | >20 | 1.25 (≈ 1.03 µg/mL)

— patent publication US10570179B2, “Substituted urea depsipeptide analogs as activators of the CLPP endopeptidase” (priority 2016, dated 2020)
